# Measured values reported in paper PMC7617869, “Molecular glues that inhibit deubiquitylase activity and inflammatory signaling” (Nature Structural & Molecular Biology, 2025).
# Values joined by “and” are separate entries in the source; they are usually repeats but may differ in a detail not shown here. Equal entries are not always repeated.
# Assays:
# BRISC (FL) / BRISCΔNΔC = target: T1, BRISC (FL) / BRISCΔNΔC (Homo sapiens, UniProt P46736+Q15018+Q9NXR7); experiment: Mass photometry of BRISC dimer formation; conditions: for Dimer fraction: 50 nM BRISCΔNΔC
# T1 construct: BRISCΔNΔC (MERIT40ΔN, Abraxas 2ΔC); made in house; host or cells: Spodoptera frugiperda Sf9 insect cells (MultiBac)
# Experimental: Immediately before mass photometry measurement, the BRISC–inhibitor mix was diluted in 25 mM HEPES pH 7.5, 150 mM NaCl and 1 mM TCEP to 10 nM BRISC ([…]). Then, 12 μl of the diluted sample was used for the final mass photometry measurement, following autofocus stabilization. […] Next, 0.5 μl of inhibitor was mixed with 19.5 μl of 50 nM BRISCΔNΔC (2.5% v/v DMSO) and incubated at room temperature for 15 min. The BRISC–inhibitor mix was used directly for mass photometry measurement using buffer-free autofocus stabilization.
# Microscope coverslips were prepared according to an established protocol. Experiments were performed using a OneMP mass photometer (Refeyn). Videos were recorded for 60 s using AcquireMP (Refeyn) and processed using DiscoverMP (Refeyn). Mass photometry image processing was previously described. Briefly, contrast-to-mass (C2M) calibration was performed using protein standards (66–669 kDa) diluted in buffer (25 mM HEPES pH 7.5, 150 mM NaCl and 1 mM TCEP). […] The mass distribution from each run was in the form of a histogram, where the count refers to each landing event and a Gaussian sum is fitted to the data. The relative amount of each species was calculated as the area of each Gaussian, where σ refers to the s.d. of the fitted Gaussian. The dimer fraction refers to the percentage of the total counts corresponding to the 564-kDa BRISCΔNΔC dimer complex. Curves and half-maximal effective concentration values were fitted and calculated using the GraphPad Prism (version 9.0) built-in dose–response equation for concentration of agonist versus response (variable slope).
# BRISC = target: T2, BRISC (Homo sapiens, UniProt P46736+Q15018+Q9NXR7); experiment: Michaelis–Menten analysis of BRISC inhibition; format: biochemical
# T2 construct: made in house; host or cells: Spodoptera frugiperda (Sf9) insect cells, MultiBac
# Experimental: (§1) IQF assays were performed in DUB reaction buffer containing 50 mM HEPES–NaOH pH 7.0, 100 mM NaCl, 0.1 mg ml^−1 BSA, 1 mM DTT and 0.03% v/v Brij-35. […] The final concentration of BRISC WT, all BRISC mutants, HsBRISCΔLoop, MmBRISC and DrBRISCΔNΔC was 1 nM. Other enzymes were tested at the following concentrations: 5 nM ARISC (FL), 10 nM CfBRISCΔNΔC, 250 nM AMSH* (ref. [43]), 500 nM USP2 and 1 μM trypsin (Sigma, 9002-07-7). For Michaelis–Menten experiments, 1 nM BRISC with 0–1 μM IQF K63-linked diubiquitin substrate was used. Michaelis–Menten analyses and Lineweaver–Burk plots were calculated using GraphPad Prism (version 9.0).
# [1] = tested on: AMSH* (a STAM2–AMSH fusion); experiment: AMSH* IQF DUB activity assay; format: biochemical; conditions: Fig. 1g, AMSH*
# Experimental: as §1
# To assess enzymatic activity, BRISC complexes were diluted to concentrations between 1 nM and 50 nM. […] Then, 20-μl enzyme reactions were carried out in 384-well black flat-bottom low-flange plates (Corning, 35373). DUB activity was measured using IQF K63-linked diubiquitin (LifeSensors, DU6303) at 50 nM. Cleaved diubiquitin was monitored by measuring fluorescence intensity (excitation, 544 nm; emission, 575 nm; dichroic mirror, 560 nm). Fluorescence intensity was measured every minute for 30 min at 30 °C. Fluorescence intensity units were plotted against time to generate a linear reaction progress curve, where the initial velocity (V0) corresponds to the gradient of the curve (typically achieved within 15 min). IC50 values were calculated using the GraphPad Prism (version 9.0) built-in dose–response equation for inhibitor concentration versus response (variable slope).
smiles,measurement,setting,value
O=C(NC1C2CNCC21)c1nn(C(=O)c2c(Cl)cccc2Cl)cc1NC(=O)c1c(Cl)cccc1Cl (stereo not shown) [FX-171-C],dimer formation with increasing inhibitor concentration (mass photometry),BRISC (FL) / BRISCΔNΔC,dose-dependent increase in dimer formation
same,Dimer fraction,BRISC (FL) / BRISCΔNΔC; [Inhibitor (μM)] 2500,0.36 and 0.38 and 0.35
same,Dimer fraction,BRISC (FL) / BRISCΔNΔC; [Inhibitor (μM)] 10000,0.31 and 0.43 and 0.4
same,Initial velocity (FU/min),"BRISC; di-Ub-TAMRA 31.2 nM, inhibitor 48 nM",121.5 FU/min and 126.3 FU/min and 146.6 FU/min
same,Initial velocity (FU/min),"BRISC; di-Ub-TAMRA 31.2 nM, inhibitor 195 nM",104.4 FU/min and 118.9 FU/min and 118.7 FU/min
same,Initial velocity (FU/min),"BRISC; di-Ub-TAMRA 31.2 nM, inhibitor 781 nM",76.24 FU/min and 88.16 FU/min and 98.75 FU/min
same,Initial velocity (FU/min),"BRISC; di-Ub-TAMRA 31.2 nM, inhibitor 3.12 μM",58.53 FU/min and 46.27 FU/min and 64.26 FU/min
same,Initial velocity (FU/min),"BRISC; di-Ub-TAMRA 31.2 nM, inhibitor 12.5 μM",38.22 FU/min and 44.65 FU/min and 65.69 FU/min
same,Initial velocity (FU/min),"BRISC; di-Ub-TAMRA 62.5 nM, inhibitor 48 nM",182.7 FU/min and 137.5 FU/min and 123.2 FU/min
same,Initial velocity (FU/min),"BRISC; di-Ub-TAMRA 62.5 nM, inhibitor 195 nM",166.2 FU/min and 105.9 FU/min and 106.4 FU/min
same,Initial velocity (FU/min),"BRISC; di-Ub-TAMRA 62.5 nM, inhibitor 781 nM",126.7 FU/min and 95.78 FU/min and 99.98 FU/min
same,Initial velocity (FU/min),"BRISC; di-Ub-TAMRA 62.5 nM, inhibitor 3.12 μM",70.11 FU/min and 76.58 FU/min and 69.67 FU/min
same,Initial velocity (FU/min),"BRISC; di-Ub-TAMRA 62.5 nM, inhibitor 12.5 μM",34.93 FU/min and 52.19 FU/min and 58.9 FU/min
same,Initial velocity (FU/min),"BRISC; di-Ub-TAMRA 62.5 nM, inhibitor 50 μM",28.22 FU/min and 40.49 FU/min and 46.74 FU/min
same,Initial velocity (FU/min),"BRISC; di-Ub-TAMRA 125 nM, inhibitor 48 nM",467.2 FU/min and 386.6 FU/min and 434.5 FU/min
same,Initial velocity (FU/min),"BRISC; di-Ub-TAMRA 125 nM, inhibitor 195 nM",414.6 FU/min and 331.3 FU/min and 418.4 FU/min
same,Initial velocity (FU/min),"BRISC; di-Ub-TAMRA 125 nM, inhibitor 781 nM",304.6 FU/min and 276.4 FU/min and 303.4 FU/min
same,Initial velocity (FU/min),"BRISC; di-Ub-TAMRA 125 nM, inhibitor 3.12 μM",173.8 FU/min and 175.1 FU/min and 170.4 FU/min
same,Initial velocity (FU/min),"BRISC; di-Ub-TAMRA 125 nM, inhibitor 12.5 μM",92.02 FU/min and 100.3 FU/min and 111.4 FU/min
same,Initial velocity (FU/min),"BRISC; di-Ub-TAMRA 125 nM, inhibitor 50 μM",36.3 FU/min and 46.67 FU/min and 63.46 FU/min
same,Initial velocity (FU/min),"BRISC; di-Ub-TAMRA 250 nM, inhibitor 48 nM",794.1 FU/min and 722.2 FU/min and 770.5 FU/min
same,Initial velocity (FU/min),"BRISC; di-Ub-TAMRA 250 nM, inhibitor 195 nM",732.8 FU/min and 688 FU/min and 641.2 FU/min
same,Initial velocity (FU/min),"BRISC; di-Ub-TAMRA 250 nM, inhibitor 781 nM",548.6 FU/min and 487.2 FU/min and 518.3 FU/min
same,Initial velocity (FU/min),"BRISC; di-Ub-TAMRA 250 nM, inhibitor 3.12 μM",309.4 FU/min and 322.6 FU/min and 305.6 FU/min
same,Initial velocity (FU/min),"BRISC; di-Ub-TAMRA 250 nM, inhibitor 12.5 μM",178.9 FU/min and 174 FU/min and 179.5 FU/min
same,Initial velocity (FU/min),"BRISC; di-Ub-TAMRA 250 nM, inhibitor 50 μM",67.25 FU/min and 84.89 FU/min and 62.1 FU/min
same,Initial velocity (FU/min),"BRISC; di-Ub-TAMRA 500 nM, inhibitor 48 nM",1729 FU/min and 1553 FU/min and 1273 FU/min
same,Initial velocity (FU/min),"BRISC; di-Ub-TAMRA 500 nM, inhibitor 195 nM",1442 FU/min and 1370 FU/min and 1434 FU/min
same,Initial velocity (FU/min),"BRISC; di-Ub-TAMRA 500 nM, inhibitor 781 nM",1085 FU/min and 985.1 FU/min and 1129 FU/min
same,Initial velocity (FU/min),"BRISC; di-Ub-TAMRA 500 nM, inhibitor 3.12 μM",624.9 FU/min and 642.2 FU/min and 551.1 FU/min
same,Initial velocity (FU/min),"BRISC; di-Ub-TAMRA 500 nM, inhibitor 12.5 μM",332.6 FU/min and 297.9 FU/min and 255.2 FU/min
same,Initial velocity (FU/min),"BRISC; di-Ub-TAMRA 500 nM, inhibitor 50 μM",109.3 FU/min and 143.3 FU/min and 196.9 FU/min
same,Initial velocity (FU/min),"BRISC; di-Ub-TAMRA 1000 nM, inhibitor 48 nM",2734 FU/min and 2460 FU/min and 2836 FU/min
same,Initial velocity (FU/min),"BRISC; di-Ub-TAMRA 1000 nM, inhibitor 195 nM",2231 FU/min and 2296 FU/min and 2566 FU/min
same,Initial velocity (FU/min),"BRISC; di-Ub-TAMRA 1000 nM, inhibitor 781 nM",1629 FU/min and 1647 FU/min and 1858 FU/min
same,Initial velocity (FU/min),"BRISC; di-Ub-TAMRA 1000 nM, inhibitor 3.12 μM",1134 FU/min
same,Initial velocity (FU/min),"BRISC; di-Ub-TAMRA 1000 nM, inhibitor 50 μM",213.3 FU/min and 360.7 FU/min and 415.9 FU/min
same,mode of inhibition,BRISC; enzyme activity at different substrate concentrations,not competitive inhibitors
same,Normalised V0,[1]; FX-171-C 0.02 μM,1.102 and 0.9959 and 1.122
same,Normalised V0,[1]; FX-171-C 0.0399999 μM,1.076 and 0.9687 and 1.118
same,Normalised V0,[1]; FX-171-C 0.0599997 μM,1.166 and 0.9974 and 1.026
same,Normalised V0,[1]; FX-171-C 0.0799994 μM,1.155 and 1.046 and 1.034
same,Normalised V0,[1]; FX-171-C 0.119998 μM,1.236 and 1.107 and 1.142
same,Normalised V0,[1]; FX-171-C 0.199996 μM,1.177 and 1.065 and 1.2539
same,Normalised V0,[1]; FX-171-C 0.499975 μM,0.9946 and 0.8997 and 1.162
same,Normalised V0,[1]; FX-171-C 0.799936 μM,1.22 and 0.8896 and 1.186
same,Normalised V0,[1]; FX-171-C 1.25984 μM,1.058 and 1.1 and 1.143
same,Normalised V0,[1]; FX-171-C 1.9996 μM,1.14 and 1.15 and 1.191
same,Normalised V0,[1]; FX-171-C 3.159 μM,1.081 and 1.064 and 1.2182
same,Normalised V0,[1]; FX-171-C 5.19739 μM,0.9976 and 1.106 and 1.16
same,Normalised V0,[1]; FX-171-C 7.99364 μM,1.138 and 1.066 and 1.161
same,Normalised V0,[1]; FX-171-C 12.7839 μM,1.171 and 0.9747 and 1.21
same,Normalised V0,[1]; FX-171-C 19.96 μM,0.7795 and 0.741 and 1.28
same,Normalised V0,[1]; FX-171-C 31.4999 μM,1.112 and 1.039 and 1.002
same,Normalised V0,[1]; FX-171-C 50.147 μM,1.1142 and 0.9322 and 1.253
same,Normalised V0,[1]; FX-171-C 79.7601 μM,1.095 and 0.9276 and 1.158
same,Normalised V0,[1]; FX-171-C 125.99 μM,1.097 and 0.9974 and 1.112
same,Normalised V0,[1]; FX-171-C 199.922 μM,0.8792 and 0.8896 and 0.9452
